# In PubChem BioAssay AID1259407 (Chemical Carcinogenesis Research Information System (CCRIS), 2018):
# Activity calls are given as the source filed them. How the calls were made is not given here.
# Test system: CCRIS mutagenicity, Ames/micronucleus/aberration tests
# Assay: CCRIS mutagenicity studies
# [1] = Test System: AMES SALMONELLA TYPHIMURIUM, Strain/Indicator: TA97, Metabolic Activation: NONE, Method: PREINCUBATION
# [2] = Test System: AMES SALMONELLA TYPHIMURIUM, Strain/Indicator: TA98, Metabolic Activation: NONE, Method: PREINCUBATION
# [3] = Test System: AMES SALMONELLA TYPHIMURIUM, Strain/Indicator: TA100, Metabolic Activation: NONE, Method: PREINCUBATION
# [4] = Test System: AMES SALMONELLA TYPHIMURIUM, Strain/Indicator: TA1535, Metabolic Activation: NONE, Method: PREINCUBATION
smiles,measurement,setting,value
CC(O)COC(C)(C)C (centres undefined),mutagenic call,"End Point: IN VITRO CHROMOSOMAL ABERRATIONS, Test System: CHO, Metabolic Activation: NONE",inactive; negative
same,mutagenic call,"End Point: IN VITRO CHROMOSOMAL ABERRATIONS, Test System: CHO, Metabolic Activation: S-9",inactive; negative
same,mutagenic call,"End Point: IN VIVO MICRONUCLEUS, Test System: PERIPHERAL BLOOD ERYTHROCYTES, Species: MOUSE, Strain/Sex: B6C3F1/FEMALE, Route: INHALATION",active; positive (weak)
same,mutagenic call,"End Point: IN VIVO MICRONUCLEUS, Test System: PERIPHERAL BLOOD ERYTHROCYTES, Species: MOUSE, Strain/Sex: B6C3F1/MALE, Route: INHALATION",inactive; negative
same,mutagenic call,"Test System: AMES SALMONELLA TYPHIMURIUM, Strain/Indicator: TA97, Metabolic Activation: HAMSTER, LIVER, S-9 (30%), AROCLOR 1254, Method: PREINCUBATION",inactive; negative
same,mutagenic call,[1],active; positive
same,mutagenic call,"Test System: AMES SALMONELLA TYPHIMURIUM, Strain/Indicator: TA97, Metabolic Activation: RAT, LIVER, S-9 (30%), AROCLOR 1254, Method: PREINCUBATION",inactive; negative
same,mutagenic call,"Test System: AMES SALMONELLA TYPHIMURIUM, Strain/Indicator: TA98, Metabolic Activation: HAMSTER, LIVER, S-9 (30%), AROCLOR 1254, Method: PREINCUBATION",inactive; negative
same,mutagenic call,[2],inactive; negative
same,mutagenic call,"Test System: AMES SALMONELLA TYPHIMURIUM, Strain/Indicator: TA98, Metabolic Activation: RAT, LIVER, S-9 (30%), AROCLOR 1254, Method: PREINCUBATION",inactive; negative
same,mutagenic call,"Test System: AMES SALMONELLA TYPHIMURIUM, Strain/Indicator: TA100, Metabolic Activation: HAMSTER, LIVER, S-9 (30%), AROCLOR 1254, Method: PREINCUBATION",inactive; negative
same,mutagenic call,[3],inactive; negative
same,mutagenic call,"Test System: AMES SALMONELLA TYPHIMURIUM, Strain/Indicator: TA100, Metabolic Activation: RAT, LIVER, S-9 (30%), AROCLOR 1254, Method: PREINCUBATION",inactive; negative
same,mutagenic call,"Test System: AMES SALMONELLA TYPHIMURIUM, Strain/Indicator: TA1535, Metabolic Activation: HAMSTER, LIVER, S-9 (30%), AROCLOR 1254, Method: PREINCUBATION",inactive; negative
same,mutagenic call,[4],inactive; negative
same,mutagenic call,"Test System: AMES SALMONELLA TYPHIMURIUM, Strain/Indicator: TA1535, Metabolic Activation: RAT, LIVER, S-9 (30%), AROCLOR 1254, Method: PREINCUBATION",inactive; negative
same,mutagenic call,"Test System: AMES SALMONELLA TYPHIMURIUM, Strain/Indicator: TA1537, Metabolic Activation: NONE, Method: PREINCUBATION",inactive; negative
O=C(OCC1CO1)c1cccc(C(=O)OCC2CO2)c1 (centres undefined),mutagenic call,"Test System: AMES SALMONELLA TYPHIMURIUM, Strain/Indicator: TA97, Metabolic Activation: HAMSTER, LIVER, S-9, AROCLOR 1254 (10%), Method: PREINCUBATION",inactive; negative
same,mutagenic call,[1],active; positive
same,mutagenic call,"Test System: AMES SALMONELLA TYPHIMURIUM, Strain/Indicator: TA97, Metabolic Activation: RAT, LIVER, S-9, AROCLOR 1254 (10%), Method: PREINCUBATION",inactive; negative
same,mutagenic call,"Test System: AMES SALMONELLA TYPHIMURIUM, Strain/Indicator: TA98, Metabolic Activation: HAMSTER, LIVER, S-9, AROCLOR 1254 (10%), Method: PREINCUBATION",inactive; negative
same,mutagenic call,[2],inactive; negative
same,mutagenic call,"Test System: AMES SALMONELLA TYPHIMURIUM, Strain/Indicator: TA98, Metabolic Activation: RAT, LIVER, S-9, AROCLOR 1254 (10%), Method: PREINCUBATION",inactive; negative
same,mutagenic call,"Test System: AMES SALMONELLA TYPHIMURIUM, Strain/Indicator: TA100, Metabolic Activation: HAMSTER, LIVER, S-9, AROCLOR 1254 (10%), Method: PREINCUBATION",active; positive
same,mutagenic call,[3],active; positive
same,mutagenic call,"Test System: AMES SALMONELLA TYPHIMURIUM, Strain/Indicator: TA100, Metabolic Activation: RAT, LIVER, S-9, AROCLOR 1254 (10%), Method: PREINCUBATION",active; positive
same,mutagenic call,"Test System: AMES SALMONELLA TYPHIMURIUM, Strain/Indicator: TA1535, Metabolic Activation: HAMSTER, LIVER, S-9, AROCLOR 1254 (10%), Method: PREINCUBATION",active; positive
same,mutagenic call,[4],active; positive
same,mutagenic call,"Test System: AMES SALMONELLA TYPHIMURIUM, Strain/Indicator: TA1535, Metabolic Activation: RAT, LIVER, S-9, AROCLOR 1254 (10%), Method: PREINCUBATION",active; positive
CS(=O)(=O)Nc1ccc(Nc2c3ccc(N=[N+]=[N-])cc3nc3ccc(N=[N+]=[N-])cc23)cc1,mutagenic call,"Test System: AMES SALMONELLA TYPHIMURIUM, Strain/Indicator: TA1537, Metabolic Activation: NONE, Method: STANDARD PLATE",inactive; negative
Nc1c(N=Nc2ccc([N+](=O)[O-])cc2)c(S(=O)(=O)O)cc2cc(S(=O)(=O)O)c(N=Nc3ccccc3)c(O)c12,mutagenic call,"Test System: AMES SALMONELLA TYPHIMURIUM, Strain/Indicator: TA98, Metabolic Activation: NONE, Method: STANDARD PLATE",active; positive
same,mutagenic call,"Test System: AMES SALMONELLA TYPHIMURIUM, Strain/Indicator: TA98, Metabolic Activation: RAT, LIVER, S-9, PHENOBARBITAL, Method: STANDARD PLATE",active; positive
same,mutagenic call,"Test System: AMES SALMONELLA TYPHIMURIUM, Strain/Indicator: TA100, Metabolic Activation: NONE, Method: STANDARD PLATE",inactive; negative
same,mutagenic call,"Test System: AMES SALMONELLA TYPHIMURIUM, Strain/Indicator: TA100, Metabolic Activation: RAT, LIVER, S-9, PHENOBARBITAL, Method: STANDARD PLATE",active; positive
